Results published in patent US10604513B2, “Pyridone derivative comprising heteroatomic ring butane substituent, for treating fibrosis and inflammatory diseases” (SHIJIAZHUANG SAGACITY NEW DRUG DEVELOPMENT CO., LTD., priority 2016, dated 2020).

Columns and labels:
[1] = test system: endotoxin (LPS)-induced TNF-α in rat blood; test: Effect of compounds on endotoxin (LPS)-induced TNF-α in rat blood in vitro; assay type: cell-based, Sprague Dawley rats; settings: for inhibition at 100 µM: tested concentration of compound 0.1 mM; for inhibition at 100 µM / inhibition at 500 µM: LPS 100 μg/mL, rat blood, 5 h; for inhibition of TNF-α level induced by LPS (in words): compared with Pirfenidone; for inhibition at 500 µM: tested concentration of compound 0.5 Mm (footnote *)
Procedure: Main task: evaluation on effect of compounds on endotoxin (LPS)-induced TNF-α in rat blood in vitro
Experimental purpose: testing effect of compounds on endotoxin (LPS)-induced TNF-α in rat blood in vitro, and evaluate effect of compounds on endotoxin (LPS)-induced TNF-α in rat blood in vitro
Sprague Dawley rats (male, 210-260 g, Shanghai Slac Laboratory Animal CO. LTD) Rat TNF-alpha Quantikine ELISA Kit (R&D, #SRTA00)
A solution of the compound was prepared (5 mM or 1 mM), 40 μL was added into a 48-well cell culture plate, respectively (the final concentration was 0.5 or 0.1 mM). The rats were hocussed with isoflurane and blood was collected from the abdominal aorta (Heparin anticoagulant). The blood was added into a 48-well cell culture plate (320 μL per well) containing the compounds to be tested. And then the 48-well cell culture plate was incubated at 37° C. After 30 min, the plate was added with 40 μL LPS (the final concentration was 100 μg/mL), and then were incubated at 37° C. after mixed. After 5 h, the 48-well plate was taken out and the blood was transferred into 1.5 mL centrifuge tubes and centrifuged in the centrifugal machine (4,500 rpm, 4° C., 5 min). The upper plasma was separated and kept portions (20 μL per well) into 96-well sample plate, and then sharp-frozen and preserved at refrigerator (−80° C.). The second day, the TNF-α level on the blood samples was tested by using R&D ELISA kits according to the kit specification. The data was analyzed by EXCEL and Prism.

[2] = test system: SD rat pulmonary fibrosis induced by Bleomycin; test: Efficacy trial in vivo: SD rat pulmonary fibrosis induced by Bleomycin; settings: for improving tissue damage in the area and margin of pulmonary fibrosis lesions: doses per Table 5, FIGS. 1-4; for efficacy compared with the reference compound Pirfenidone: oral, 14 days
Text: Experimental purpose: test preventive therapeutic effects of compounds on SD rat pulmonary fibrosis induced by Bleomycin
Model: SD rat pulmonary fibrosis on the left lung; pulmonary fibrosis modelled by injecting Bleomycin into rat trachea
Molding agent: Bleomycin (BLM)
1 ? experimental grouping: efficacy trial for twice, besides common modeling group and Pirfenidone group as control reference, tested compounds were divided into […], i.e. model group (Group -1, n=7, Vehicle), control reference drug (group-2, n=7, Pirfenidone); tested compound WX001 group (Group-3, n=7), tested compound WX002 high dosage group (Group-4, n=7), tested compound WX002 low dosage group (Group-5, n=7) (Table 5)
2 ? Drug administration: Orally administering on the day the model was established, twice a day and administration for 14 day continuously 3 ? Physiological observation of experimental animal: detecting changes in animal weight (test weight before administration every day); detecting animal death rate during test period 4 ? euthanasia of animal after 14 days, formalin was injected into left lung to fix, and test volume and weight of left lung after injection and then test Lung Pathology (Table 6)
Test Results of Experiment: Test of tissue pathology of left lung: pathological evaluation of H&E dye: 1) pathological changes of left lung terminal bronchiole, 2) pathological changes of left lung pulmonary arteriole; pathological evaluation of Masson Thrichrome dye: 3) area of left lung pulmonary fibrosis, 4) score of left lung pulmonary fibrosis.

`CC1(c2ccc(=O)n(-c3cscn3)c2)COC1` [WX005] gave an inhibition at 100 µM [1] of 61.6%.
In the case of `CC1(c2ccc(=O)n(-c3ccccc3)c2)COC1` [WX001], the “improving tissue damage in the area and margin of pulmonary fibrosis lesions” value ([2]; oral twice a day for 14 days) is reported as “good effect”, the “inhibition of TNF-α level induced by LPS (in words)” value (“inhibition of TNF-α level induced” below) ([1]; 0.5 mM) is reported as “significant inhibition” and the inhibition at 500 µM [1] is reported as 86.3%.
For `CC1(c2ccc(=O)n(-c3csc(Cl)c3)c2)COC1` [WX003], the “inhibition of TNF-α level induced” value ([1]; 0.1 mM as final concentration) was “significant inhibition” and the inhibition at 100 µM [1] was 84.7%.
In the case of `O=c1ccc(C2(O)COC2)cn1-c1ccsc1` [WX009], the inhibition at 500 µM [1] is reported as 51.5%.
`Cc1ccc(=O)n(-c2ccccc2)c1` [Pirfenidone, reference compound] showed an inhibition at 500 µM [1] of 51.4%.
With `Cc1cc(-n2cc(C3(C)COC3)ccc2=O)cs1` [WX004] the “inhibition of TNF-α level induced” value ([1]; 0.1 mM as final concentration) was “significant inhibition” and the inhibition at 100 µM [1] was 89.5%.
With `O=c1ccc(C2(F)COC2)cn1-c1ccsc1` [WX011] the “inhibition of TNF-α level induced” value ([1]; 0.1 mM as final concentration) was “significant inhibition” and the inhibition at 100 µM [1] was 78.8%.
In the case of `CC1(c2ccc(=O)n(-c3ccsc3)c2)COC1` [WX002], the “efficacy compared with the reference compound Pirfenidone” value ([2]; low dose of 50 mpk group) is reported as “better efficacy than Pirfenidone”, the “preventing the formation of pulmonary fibrosis” value ([2]; oral twice a day for 14 days, FIG. 5) is reported as “good effect” and the “improving tissue damage in the area and margin of pulmonary fibrosis lesions” value ([2]; oral twice a day for 14 days) is reported as “good effect”. The “efficacy compared with the reference compound Pirfenidone” value ([2]; same dose of 100 mpk group) was “better efficacy than Pirfenidone”, the “inhibition of TNF-α level induced” value ([1]; 0.1 mM as final concentration) was “significant inhibition” and the inhibition at 100 µM [1] was 74.6%.
